Measurements taken from US5399340A, “Use of amide complex compounds” (Schering Aktiengesellschaft, priority 1989, dated 1995).

Columns and labels:
[1] = T1 relaxation in plasma; assay type: physicochemical
[2] = T1 relaxation in water; assay type: physicochemical
[3] = cited from earlier work

For `C[NH2+]C[C@H](O)[C@@H](O)[C@H](O)[C@H](O)CO.O=C([O-])CN(CCN(CC(=O)[O-])CC(=O)[O-])CCN(CC(=O)[O-])CC(=O)Nc1ccccc1.[Gd+3]` [Example 2, N-Methylglucamine Salt of the Gadolinium Complex of 3,6,9-Tris(carboxymethyl)-3,6,9-triazaundecanedioic Acid Phenyl Monoamide], the T1 relaxation [1] was 5.45 ± 0.68 mmol⁻¹ s⁻¹ and the T1 relaxation [2] was 3.79 ± 0.16 mmol⁻¹ s⁻¹.

In the case of `CNC[C@H](O)[C@@H](O)[C@H](O)[C@H](O)CO.CNC[C@H](O)[C@@H](O)[C@H](O)[C@H](O)CO.O=C([O-])CN(CCN(CC(=O)[O-])CC(=O)O)CCN(CC(=O)[O-])CC(=O)O.[Gd+3]` [MAGNEVIST], the distribution ([3]; intravenous injection) is listed as “extra-cellular”, the “passage of intact cell membranes and extrarenal excretion” value ([3]; intravenous injection) is listed as “practically not at all observed” and the route of excretion ([3]; intravenous injection) is listed as “excreted via the kidneys by glomerular secretion”. For the same compound, the “rate of excretion in renal insufficiency” value ([3]; patients with limited kidney function) was “excreted only very slowly”.
